# Data reported in US12653191B2, “Active compound combinations” (Bayer Aktiengesellschaft, priority 2020, dated 2026).
# Several values for one entry are separate records, joined by “and”; a condition that tells them apart may be missing. Equal values may be shown once.
# Experiments:
# Parastagonospora nodorum [1] = experiment: in vitro-Test with fungal microorganisms, Method B (tables H5-H8); assay type: cell-based; conditions: Parastagonospora nodorum, read-out: Efficacy
# How it was run: (§1)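 Efficacy scale: 0% means growth equal to the untreated control, 100% means none detected. Compounds are dried from methanol with emulsifier before adding inoculated growth medium; incubation at 20° C., 85% relative humidity for 3 to 7 days precedes photometric inhibition readout.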
# Cercospora beticola [2] = experiment: in vitro-Test with fungal microorganisms, Method B (tables C11-C20); assay type: cell-based
# How it was run: as §1
# Cordana musae [3] = experiment: in vitro-Test with fungal microorganisms, Method A (tables E1-E8); assay type: cell-based; conditions: single substance
# How it was run: (§2)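 Compound was dried into wells and overlaid with liquid potato dextrose medium containing spores or mycelium of the fungus. Plates were held at 20° C and 85% RH, and growth was read as extinction at 620 nm after 3–5 days. Efficacy is relative to the untreated control (0% = control growth, 100% = no growth).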
# Colletotrichum coccodes = experiment: in vitro-Test with fungal microorganisms, Method B (tables J1-J11); assay type: cell-based
# How it was run: as §1
# Parastagonospora nodorum [4] = experiment: in vitro-Test with fungal microorganisms, Method A (tables H1-H4); assay type: cell-based
# Procedure: Example: In Vitro-Test with Fungal Microorganisms
# Wells of 96-well microtiter plates are filled with 10 μl of a preparation of test compound or compound combination in methanol+emulsifier alkylaryl-polyglycol-ether. Thereafter, the solvent is evaporated in a hood. At the next step, 100 μl of liquid potato dextrose medium is given into each well, that has been amended with an appropriate concentration of spores or mycelium suspension of the test fungus.
# With the aid of a photometer, the extinction in all wells is measured at the wavelength of 620 nm.
# The microtiter plates are incubated at 20° C. and 85% relative humidity. The inhibition of growth is determined again photometrically 3-5 days after the application. Efficacy is calculated in relation to the untreated control, 0% efficacy means fungal growth as high as in untreated control while 100% efficacy means no fungal growth is measured.
# The data in tables A1 to A12, B1 to B14, C1 to C10, D1 to D8, E1 to E8, F1 to F11, G1 to G4, H1 to H4 and I1 to I5 were collected according to Method A. The data in tables A13 to A22, B15 to B18, C11 to C20, E9 to E16, F12 to F15, G5 to G15, H5 to H8, I6 to I11 and J1 to J11 were collected according to Method B.
# [5] = system: Colletotrichum lindemuthianum; experiment: in vitro-Test with fungal microorganisms, Method A (tables D1-D8); assay type: cell-based
# How it was run: as §2
# Cercospora beticola [6] = experiment: in vitro-Test with fungal microorganisms, Method A (tables C1-C10); assay type: cell-based; conditions: for inhibition of growth at 0.008 ppm / inhibition of growth at 0.04 ppm / inhibition of growth at 0.2 ppm / inhibition of growth at 1 ppm: Cercospora beticola, read-out: Efficacy %
# How it was run: as §2
# Fusarium culmorum = experiment: in vitro-Test with fungal microorganisms, Method B (tables G5-G15); assay type: cell-based
# How it was run: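 Cpd in MeOH + alkylaryl-polyglycol-ether, solvent evaporated; liquid medium + fungal spores/mycelium added; OD600 read; 3–7 d, 20° C., 85% RH; growth inhibition by photometry, % efficacy vs untreated ctrl.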
# Alternaria alternata = experiment: in vitro-Test with fungal microorganisms, Method B (tables A13-A22); assay type: cell-based; conditions: single compound
# How it was run: as §1
# [7] = system: Ustilago segetum var. avenae; experiment: in vitro-Test with fungal microorganisms, Method B (tables I6-I11); assay type: cell-based
# How it was run: as §1
# Cordana musae [8] = experiment: in vitro-Test with fungal microorganisms, Method B (tables E9-E16); assay type: cell-based; conditions: for Efficacy %: single substance
# How it was run: as §1
# Alternaria alternate = experiment: in vitro-Test with fungal microorganisms, Method A (tables A1-A12); assay type: cell-based, Alternaria alternata; conditions: applied alone
# How it was run: as §2
# Botrytis cinerea [9] = experiment: in vitro-Test with fungal microorganisms, Method A (tables B1-B14); assay type: cell-based
# How it was run: as §2
# Botrytis cinerea [10] = experiment: in vitro-Test with fungal microorganisms, Method B (tables B15-B18); assay type: cell-based; conditions: alone
# How it was run: as §1
# [11] = system: Ustilago segetum var. avenae; experiment: in vitro-Test with fungal microorganisms, Method A (tables I1-I5); assay type: cell-based; conditions: alone
# How it was run: as §2
# Diaporthe citri [12] = experiment: in vitro-Test with fungal microorganisms, Method A (tables F1-F11); assay type: cell-based; conditions: applied alone
# How it was run: as §2
# Diaporthe citri [13] = experiment: in vitro-Test with fungal microorganisms, Method B (tables F12-F15); assay type: cell-based
# How it was run: as §1
# [14] = 0.008 ppm, read-out: Efficacy %
structure (smiles),measurement,setting,value
"CC1COC(Cn2cncn2)(c2ccc(Oc3ccc(Cl)cc3)cc2Cl)O1 (stereo not shown) [(1.002) difenoconazole, difenoconazole]",inhibition of growth at 0.008 ppm,Parastagonospora nodorum [1]; 0.008 ppm,32%
same,inhibition of growth at 0.04 ppm,Parastagonospora nodorum [1]; 0.04 ppm,100%
same,inhibition of growth at 0.2 ppm,Parastagonospora nodorum [1]; 0.2 ppm,100%
same,inhibition of growth at 0.008 ppm,"Cercospora beticola [2]; Cercospora beticola, 0.008 ppm, read-out: Efficacy %",5%
same,inhibition of growth at 0.04 ppm,"Cercospora beticola [2]; Cercospora beticola, read-out: Efficacy %",60%
same,inhibition of growth at 0.2 ppm,"Cercospora beticola [2]; Cercospora beticola, 0.2 ppm, read-out: Efficacy %",98%
same,inhibition of growth at 1 ppm,"Cercospora beticola [2]; Cercospora beticola, 1 ppm, read-out: Efficacy %",99%
same,inhibition of growth at 0.008 ppm,"Cercospora beticola [2]; Cercospora beticola, single compound, 0.008 ppm, read-out: Efficacy %",16%
same,inhibition of growth at 0.04 ppm,"Cercospora beticola [2]; Cercospora beticola, single compound, read-out: Efficacy %",51%
same,inhibition of growth at 0.2 ppm,"Cercospora beticola [2]; Cercospora beticola, single compound, 0.2 ppm, read-out: Efficacy %",100%
same,inhibition of growth at 0.2 ppm,"Cordana musae [3]; Neocordana musae, 0.2 ppm, read-out: Efficacy %",0%
same,inhibition of growth at 1 ppm,"Cordana musae [3]; Neocordana musae, 1.0 ppm, read-out: Efficacy %",14%
same,inhibition of growth at 0.2 ppm,"Colletotrichum coccodes; Colletotrichum coccodes, 0.2 ppm, read-out: Efficacy %",0.31%
same,inhibition of growth at 1 ppm,"Colletotrichum coccodes; Colletotrichum coccodes, single active compound at 1 ppm, read-out: Efficacy %",24%
same,Efficacy,Parastagonospora nodorum [4]; 0.04 ppm,22%
same,Efficacy,Parastagonospora nodorum [4]; 0.2 ppm,88%
same,inhibition of growth at 0.008 ppm,"[5]; Colletotrichum lindemuthianum, mixing partner alone, 0.008 ppm, read-out: Efficacy %",0%
same,inhibition of growth at 0.04 ppm,"[5]; Colletotrichum lindemuthianum, mixing partner alone, 0.04 ppm, read-out: Efficacy %",2%
same,inhibition of growth at 0.2 ppm,"[5]; Colletotrichum lindemuthianum, mixing partner alone, 0.2 ppm, read-out: Efficacy %",0%
same,inhibition of growth at 1 ppm,"[5]; Colletotrichum lindemuthianum, mixing partner alone, 1.0 ppm, read-out: Efficacy %",16%
same,inhibition of growth at 0.008 ppm,Cercospora beticola [6]; 0.008 ppm alone,5%
same,inhibition of growth at 0.008 ppm,Cercospora beticola [6]; 0.008 ppm,15%
same,inhibition of growth at 0.04 ppm,Cercospora beticola [6]; 0.04 ppm alone,20%
same,inhibition of growth at 0.04 ppm,Cercospora beticola [6]; 0.04 ppm,40%
same,inhibition of growth at 0.2 ppm,Cercospora beticola [6]; 0.2 ppm alone,79%
same,inhibition of growth at 0.2 ppm,Cercospora beticola [6]; 0.2 ppm,89%
same,inhibition of growth at 1 ppm,Cercospora beticola [6]; 1.0 ppm alone,99%
same,inhibition of growth at 1 ppm,Cercospora beticola [6]; 1.0 ppm,99%
same,inhibition of growth at 0.04 ppm,"Fusarium culmorum; Fusarium culmorum, 0.04 ppm, alone, read-out: Efficacy",26%
same,inhibition of growth at 0.04 ppm,"Alternaria alternata; Alternaria alternata, 0.04 ppm, read-out: Efficacy",21%
same,inhibition of growth at 0.2 ppm,"Alternaria alternata; Alternaria alternata, 0.2 ppm, read-out: Efficacy",53%
same,inhibition of growth at 1 ppm,"Alternaria alternata; Alternaria alternata, 1 ppm, read-out: Efficacy",94%
same,inhibition of growth at 0.008 ppm,[7]; [14],2%
same,inhibition of growth at 0.04 ppm,"[7]; 0.04 ppm, read-out: Efficacy %",40%
same,inhibition of growth at 0.2 ppm,"[7]; 0.2 ppm, read-out: Efficacy %",100%
same,inhibition of growth at 0.04 ppm,"Cordana musae [8]; Neocordana musae, single active, 0.04 ppm, read-out: Efficacy",0%
same,inhibition of growth at 0.2 ppm,"Cordana musae [8]; Neocordana musae, single active, 0.2 ppm, read-out: Efficacy",16%
same,inhibition of growth at 1 ppm,"Cordana musae [8]; Neocordana musae, single active, 1 ppm, read-out: Efficacy",20%
same,Efficacy %,Cordana musae [8]; 0.04 ppm,0%
same,inhibition of growth at 0.04 ppm,"Alternaria alternate; Alternaria, 0.04 ppm, read-out: Efficacy %",10%
same,inhibition of growth at 0.2 ppm,"Alternaria alternate; Alternaria, 0.2 ppm, read-out: Efficacy %",28%
same,inhibition of growth at 1 ppm,"Alternaria alternate; Alternaria, 1.0 ppm, read-out: Efficacy %",96%
same,inhibition of growth at 0.008 ppm,"Botrytis cinerea [9]; Botrytis cinerea, alone, 0.008 ppm, read-out: Efficacy %",8%
same,inhibition of growth at 0.04 ppm,"Botrytis cinerea [9]; Botrytis cinerea, alone, 0.04 ppm, read-out: Efficacy %",0%
same,inhibition of growth at 0.2 ppm,"Botrytis cinerea [9]; Botrytis cinerea, alone, 0.2 ppm, read-out: Efficacy %",0%
same,inhibition of growth at 1 ppm,"Botrytis cinerea [9]; Botrytis cinerea, alone, 1.0 ppm, read-out: Efficacy %",0%
same,inhibition of growth at 1 ppm,"Botrytis cinerea [10]; Botrytis cinerea, 1 ppm, read-out: Efficacy %",13%
same,inhibition of growth at 0.008 ppm,[11]; [14],8%
same,inhibition of growth at 0.04 ppm,"[11]; 0.04 ppm, read-out: Efficacy %",14%
same,inhibition of growth at 1 ppm,"[11]; 1.0 ppm, read-out: Efficacy %",100%
same,inhibition of growth at 0.04 ppm,"Diaporthe citri [12]; Diaporthe citri, 0.04 ppm, read-out: Efficacy",0.04%
"COc1ccnc(C(=O)N[C@H]2COC(=O)[C@H](Cc3ccccc3)[C@@H](OC(=O)C(C)C)[C@H](C)OC2=O)c1OCOC(=O)C(C)C [(3.025) fenpicoxamid, fenpicoxamid]",Efficacy %,"Cercospora beticola [2]; single compound, 0.008 ppm",0%
same,Efficacy %,"Cercospora beticola [2]; single compound, 0.2 ppm",17% and 31%
same,Efficacy %,"Cercospora beticola [2]; single compound, 1 ppm",97% and 100%
same,Efficacy %,Cordana musae [3]; 1.0 ppm,40%
same,Efficacy %,Cordana musae [3]; 5.0 ppm,80%
same,Efficacy %,Colletotrichum coccodes; single active compound at 0.2 ppm,23% and 33%
same,Efficacy %,Colletotrichum coccodes; single active compound at 1 ppm,16%
same,Efficacy,Parastagonospora nodorum [4]; 0.04 ppm,19%
same,Efficacy,Parastagonospora nodorum [4]; 0.2 ppm,61%
same,Efficacy,Parastagonospora nodorum [4]; 1.0 ppm,64%
same,Efficacy,Parastagonospora nodorum [4]; 5.0 ppm,72%
same,Efficacy %,[5]; single active at 0.04 ppm,0%
same,Efficacy %,[5]; single active at 0.2 ppm,5%
same,Efficacy %,[5]; single active at 1.0 ppm,69% and 66%
same,Efficacy %,[5]; single active at 5.0 ppm,79% and 86%
same,Efficacy %,Cercospora beticola [6]; 0.04 ppm,0%
same,Efficacy %,Cercospora beticola [6]; 0.2 ppm,2%
same,Efficacy %,Cercospora beticola [6]; 0.2 ppm alone,41% and 35%
same,Efficacy %,Cercospora beticola [6]; 1.0 ppm,20%
same,Efficacy %,Cercospora beticola [6]; 1.0 ppm alone,62% and 53%
same,Efficacy %,Cercospora beticola [6]; 5.0 ppm,98%
same,Efficacy %,Cercospora beticola [6]; 5.0 ppm alone,92% and 88%
same,Efficacy,Fusarium culmorum; 0.008 ppm alone,10%
same,Efficacy,"Fusarium culmorum; single active compound, 0.008 ppm",7% and 5%
same,Efficacy,"Fusarium culmorum; single active compound, 0.04 ppm",1% and 9%
same,Efficacy,"Fusarium culmorum; single active compound, 0.2 ppm",18% and 25%
same,Efficacy,"Fusarium culmorum; single active compound, 1 ppm",17%
same,Efficacy,Alternaria alternata; 0.008 ppm,6%
same,Efficacy,Alternaria alternata; 0.04 ppm,14%
same,Efficacy,Alternaria alternata; 1 ppm,61%
same,Efficacy %,[7]; 0.008 ppm,14%
same,Efficacy %,[7]; 0.04 ppm,6%
same,Efficacy %,[7]; 0.2 ppm,1%
same,Efficacy,"Cordana musae [8]; single active, 0.2 ppm",44%
same,Efficacy %,Cordana musae [8]; 0.008 ppm,0%
same,Efficacy %,Cordana musae [8]; 0.2 ppm,52%
same,Efficacy,"Diaporthe citri [13]; Table F12, 0.008 ppm alone",0%
same,Efficacy,"Diaporthe citri [13]; Table F12, 0.2 ppm alone",83%
same,Efficacy,"Diaporthe citri [13]; Table F12, 1 ppm alone",94%
same,Efficacy,"Diaporthe citri [13]; Table F13, 0.2 ppm alone",79%
same,Efficacy %,Alternaria alternate; 0.04 ppm,5% and 9%
same,Efficacy %,Alternaria alternate; 0.2 ppm,2% and 7%
same,Efficacy %,Alternaria alternate; 1.0 ppm,41% and 30%
same,Efficacy %,Alternaria alternate; 5.0 ppm,76% and 59%
same,Efficacy,Botrytis cinerea [9]; 0.04 ppm,6%
same,Efficacy,Botrytis cinerea [9]; 0.2 ppm,6%
same,Efficacy,Botrytis cinerea [9]; 1.0 ppm,21%
same,Efficacy %,"Botrytis cinerea [9]; alone, 0.04 ppm",15%
same,Efficacy %,"Botrytis cinerea [9]; alone, 0.2 ppm",9%
same,Efficacy %,"Botrytis cinerea [9]; alone, 1.0 ppm",15%
same,Efficacy %,"Botrytis cinerea [9]; alone, 5.0 ppm",45%
same,Efficacy %,Botrytis cinerea [10]; 0.008 ppm,0%
same,Efficacy %,Botrytis cinerea [10]; 0.2 ppm,14%
same,Efficacy %,Botrytis cinerea [10]; 1 ppm,52%
same,Efficacy %,[11]; 0.04 ppm,0%
same,Efficacy %,[11]; 0.2 ppm,0%
same,Efficacy %,[11]; 1.0 ppm,0%
same,Efficacy %,[11]; 5.0 ppm,0%
same,Efficacy,Diaporthe citri [12]; 0.04 ppm,3%
same,Efficacy,Diaporthe citri [12]; 1.0 ppm,79% and 66%
same,Efficacy,Diaporthe citri [12]; 5.0 ppm,92%
